Measurements taken from patent publication US8071600B2, “Derivatives of 4-piperazin-1-yl-4-benzo[B]thiophene suitable for the treatment of CNS disorders” (Otsuka Pharmaceutical Co., Ltd., priority 2005, dated 2011).

Legend:
Dopamine D2 receptor = target: T1, Dopamine D2 receptor (Rattus norvegicus, UniProt P61169); assay: Dopamine D2 receptor binding assay ([3H]-raclopride); settings: Dopamine D2 receptor binding test, rat corpus striatum membrane, Ki calculated from IC50 by Cheng-Prussoff formula
T1 construct: from tissue; host or cells: Wistar rat brain, corpus striatum membranes
Experimental: 1) Dopamine D2 Receptor Binding Assay
The assay was performed according to the method by Kohler et al. (Kohler C, Hall H, Ogren S O and Gawell L, Specific in vitro and in vivo binding of 3H-raclopride. A potent substituted benzamide drug with high affinity for dopamine D-2 receptors in the rat brain. Biochem. Pharmacol., 1985; 34: 2251-2259).
Wistar male rats were decapitated, the brain was retrieved immediately and corpus striatum was taken out. It was homogenized in 50 mM tris(hydroxymethyl)aminomethane (Tris)-hydrochloric acid buffer (pH 7.4) of a volume 50 times of the weight of the tissue using a homogenizer with a high-speed rotating blade, and centrifuged at 4° C., 48,000×g for 10 minutes. The obtained precipitate was suspended again in the above-described buffer of a volume 50 times of the weight of the tissue and after incubated at 37° C. for 10 minutes, centrifuged in the above-described condition. The obtained precipitate was suspended in 50 mM (Tris)-hydrochloric acid buffer (containing 120 mM NaCl, 5 mM KCl, 2 mM CaCl2, 1 mM MgCl2, pH 7.4) of a volume 25 times of the weight of the tissue and preserved by freezing at −85° C. till it was used for binding assay as a membrane specimen.
The binding assay was performed using 40 μl of the membrane specimen, 20 μl of [^3H]-raclopride (final concentration 1 to 2 nM), 20 μl of a test drug and 50 mM Tris-hydrochloric acid buffer (containing 120 mM NaCl, 5 mM KCl, 2 mM CaCl2, 1 mM MgCl2, pH 7.4) so that the total amount was 200 μl (final dimethylsulfoxide concentration 1%). The reaction was performed at room temperature for 1 hour and terminated by conducting suction filtration with a cell harvester on a glass fiber filter plate. The filter plate made of glass fiber was washed with 50 mM Tris-hydrochloric acid buffer (pH 7.4), and after dried, a microplate liquid scintillation cocktail was added and the radioactivity was measured with a microplate scintillation counter. Radioactivity in the presence of 10 μM (+)-butaclamol hydrochloride was assumed as nonspecific binding.
(§1) IC50 value was calculated from concentration-dependent reaction using a non-linear analysis program. Ki value was calculated from IC50 value using Cheng-Prussoff formula.

[1] = target: T2, Serotonin 5-HT2A receptor (Rattus norvegicus, UniProt P14842); assay: Serotonin 5-HT2A receptor binding assay ([3H]-Ketanserin); settings: Serotonin 5-HT2A receptor binding test, rat frontal cortex membrane, Ki calculated from IC50 by Cheng-Prussoff formula
T2 construct: from tissue; host or cells: Wistar rat brain, frontal cortex membranes
Experimental: 2) Serotonin 5-HT2A Receptor Binding Assay
The assay was performed according to the method by Leysen J E et al. (Leysen J E, Niemegeers C J E, Van Nueten J M and Laduron P M. [3H] Ketanserin (R 41 468), a selective 3H-ligand for serotonin 2 receptor binding sites. Mol. Pharmacol., 1982, 21: 301-314).
Wistar male rats were decapitated, the brain was retrieved immediately and frontal cortex was taken out. It was homogenized in 0.25 M sucrose of a volume 10 times of the weight of the tissue using a Teflon glass homogenizer, and centrifuged at 4° C., 1,000×g for 10 minutes. The obtained supernatant was transferred to another centrifuge tube and suspended in 0.25 M sucrose of a volume 5 times of the weight of the tissue and the precipitate was centrifuged in the above-described condition. The obtained supernatant was combined with the supernatant obtained above and adjusted to a volume 40 times of the weight of the tissue with 50 mM Tris-hydrochloric acid buffer (pH 7.4), and centrifuged at 4° C., 35,000×g for 10 minutes. The obtained precipitate was suspended again in the above-described buffer of a volume 40 times of the weight of the tissue and centrifuged in the above-described condition. The obtained precipitate was suspended in the above-described buffer of a volume 20 times of the weight of the tissue and preserved by freezing at −85° C. till it was used for binding assay as a membrane specimen.
The binding assay was performed using 40 μl of the membrane specimen, 20 μl of [^3H]-Ketanserin (final concentration 1 to 3 nM), 20 μl of a test drug and 50 mM Tris-hydrochloric acid buffer (pH 7.4) so that the total amount was 200 μl (final dimethylsulfoxide concentration 1%). The reaction was performed at 37° C. for 20 minutes and terminated by conducting suction filtration with a cell harvester on a glass fiber filter plate.
The filter plate made of glass fiber was washed with 50 mM Tris-hydrochloric acid buffer (pH 7.4), and after dried, a microplate liquid scintillation cocktail was added and the radioactivity was measured with a microplate scintillation counter. Radioactivity in the presence of 10 μM spiperone was assumed as nonspecific binding.
as §1

[2] = system: serotonin (5-HT) uptake by rat brain synaptosome; assay: Serotonin (5-HT) uptake inhibitory activity by rat brain synaptosome; assay type: biochemical; settings: test compound 300 nM, tritium labeled 5-HT 8 nM, 10 minutes uptake at 37° C.
Experimental: Measurement of serotonin (5-HT) uptake inhibitory activity of a test compound by rat brain synaptosome
Wistar male rats were decapitated, the brain was retrieved and frontal cortex was dissected out, and it was homogenized in 0.32 M sucrose solution of a weight 20 times of the weight of the tissue using a Potter type homogenizer. The homogenate was centrifuged at 4° C., 1,000×g for 10 minutes, the obtained supernatant was further centrifuged at 4° C., 20,000×g for 20 minutes, and the pellet was suspended in an incubation buffer (20 mM Hepes buffer (pH 7.4) containing 10 mM glucose, 145 mM sodium chloride, 4.5 mM potassium chloride, 1.2 mM magnesium chloride, 1.5 mM calcium chloride), which was used as crude synaptosome fraction.
5-HT uptake reaction was performed in a volume of 200 μl using a 96-well round bottom plate and pargyline (final concentration 10 μM) and sodium ascorbate (final concentration 0.2 mg/ml) were contained in the incubation buffer upon reaction and used.
Incubation buffer (total counting), non-labeled 5-HT (final concentration 10 μM, non-specific counting) and the diluted test compound (final concentration 300 nM) were added to each well. One-tenth quantity of the final volume of the synaptosome fraction was added and after preincubated at 37° C. for 10 minutes, tritium labeled 5-HT solution (final concentration 8 nM) was added and uptake reaction was started at 37° C. The uptake time was 10 minutes and the reaction was terminated by vacuum filtration through a 96-well fiber glass filter paper plate, and after the filter paper was washed with cold normal saline, it was dried enough and Microscint0 (Perkin-Elmer) was added to the filter and remaining radioactivity on the filter was measured.
Serotonin uptake inhibitory activity (%) was calculated from the radioactivity of total counting as 100%, of non-specific counting as 0%, and of counting obtained with test compound. % of inhibition of 5-HT(%)=100−[(Count obtained with test compound−Nonspecific count (0% Uptake))/(Total count (100% Uptake)−Nonspecific count (0% Uptake))]×100 The results are shown in the next Table 314.

[3] = target: Human recombinant dopamine D2 receptor (Homo sapiens, UniProt P14416); settings: forskolin-stimulated D2 receptor expressing CHO cells; well without test compound = 100%
Experimental: Partial agonistic activity on dopamine D2 receptor using D2 receptor expression cells
Partial agonistic activity on dopamine D2 receptor was evaluated by quantitatively determining cyclic AMP production inhibitory effect of a test compound in dopamine D2 receptor expression cells in which adenosine 3′,5′-cyclic monophosphate (cyclic AMP) production was induced by forskolin stimulation.
Human recombinant dopamine D2 receptor expressing Chinese hamster ovary/DHFR(−) cells were cultured in a culture medium (Iscove's Modified Dulbecco's Medium (IMDM culture medium), 10% fetal bovine serum, 50 I.U./ml penicillin, 50 μg/ml streptomycin, 200 μg/ml geneticin, 0.1 mM sodium hypoxanthine, 16 μM thymidine) at 37° C. and 5% carbon dioxide condition. Cells were seeded at 10^4 cells/well on a 96-well microtiter plate coated with poly-L-lysine and grown under the same condition for 2 days. Each well was washed with 100 μl of a culture medium (IMDM culture medium, 0.1 mM sodium hypoxanthine, 16 μM thymidine).

T1 sequence (P61169 whole entry): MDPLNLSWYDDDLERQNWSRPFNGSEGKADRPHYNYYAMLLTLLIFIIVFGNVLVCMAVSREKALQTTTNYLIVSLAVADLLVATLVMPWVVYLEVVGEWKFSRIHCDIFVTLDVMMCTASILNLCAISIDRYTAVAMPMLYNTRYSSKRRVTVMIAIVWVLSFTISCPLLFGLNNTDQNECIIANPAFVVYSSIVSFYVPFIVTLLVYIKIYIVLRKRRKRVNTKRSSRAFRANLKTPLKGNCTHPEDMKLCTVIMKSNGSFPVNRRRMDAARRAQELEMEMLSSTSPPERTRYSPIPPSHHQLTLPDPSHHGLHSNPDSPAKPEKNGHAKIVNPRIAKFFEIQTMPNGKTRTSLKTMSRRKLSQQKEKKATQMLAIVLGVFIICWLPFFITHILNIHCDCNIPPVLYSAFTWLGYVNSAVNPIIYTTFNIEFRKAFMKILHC
T2 sequence (P14842 whole entry): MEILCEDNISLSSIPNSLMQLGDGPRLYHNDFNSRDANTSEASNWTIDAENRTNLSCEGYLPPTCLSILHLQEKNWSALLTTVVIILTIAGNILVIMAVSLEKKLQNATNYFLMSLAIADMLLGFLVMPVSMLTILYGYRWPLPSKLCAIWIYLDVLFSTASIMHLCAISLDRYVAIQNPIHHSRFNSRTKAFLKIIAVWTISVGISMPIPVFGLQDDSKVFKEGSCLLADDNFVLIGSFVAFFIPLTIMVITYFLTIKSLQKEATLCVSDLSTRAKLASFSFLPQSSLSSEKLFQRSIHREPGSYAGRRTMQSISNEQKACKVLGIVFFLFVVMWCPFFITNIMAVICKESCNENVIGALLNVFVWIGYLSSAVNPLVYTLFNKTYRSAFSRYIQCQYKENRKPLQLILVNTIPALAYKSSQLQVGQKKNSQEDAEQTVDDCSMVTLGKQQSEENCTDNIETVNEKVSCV
Human recombinant dopamine D2 receptor, sequence (P14416 whole entry): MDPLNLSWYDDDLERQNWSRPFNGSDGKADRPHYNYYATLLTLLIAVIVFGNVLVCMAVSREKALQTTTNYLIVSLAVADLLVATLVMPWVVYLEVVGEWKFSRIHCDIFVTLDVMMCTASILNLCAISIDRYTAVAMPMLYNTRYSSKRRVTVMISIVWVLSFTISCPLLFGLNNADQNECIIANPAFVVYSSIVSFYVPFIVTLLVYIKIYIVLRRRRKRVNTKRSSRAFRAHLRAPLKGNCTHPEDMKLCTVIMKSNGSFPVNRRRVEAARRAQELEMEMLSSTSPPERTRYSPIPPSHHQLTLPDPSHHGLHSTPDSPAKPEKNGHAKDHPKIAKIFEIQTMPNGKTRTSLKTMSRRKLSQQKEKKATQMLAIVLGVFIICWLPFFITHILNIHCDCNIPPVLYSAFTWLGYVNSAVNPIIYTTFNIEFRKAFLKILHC

| quantity of cyclic AMP suppressed to, as the maximum activity [3] | Structure (SMILES) | Ki (Dopamine D2 receptor) | melting point | Ki [1] | Serotonin uptake inhibitory ratio (%) (300 nM) [2] |
| --- | --- | --- | --- | --- | --- |
| – | COc1cc(NC(=O)CNC(=O)OC(C)(C)C)cc(C)c1OCCCN1CCN(c2cccc3sccc23)CC1 [Example 1059] | 0.4 nM | 140.5 to 142.5 °C | 3.8 nM | 97.2% |
| – | COC(=O)N1CCN(c2cc(CO)c(OCCCN3CCN(c4cccc5sccc45)CC3)c(OC)c2)CC1 [Example 1087] | 0.3 nM | 128 to 130 °C | 2.6 nM | 97.1% |
| about 10% | NCCc1ccc(O)c(O)c1 [dopamine] | – | – | – | – |
| – | COc1cc(NC(=O)CNC(C)=O)cc(C)c1OCCCN1CCN(c2cccc3sccc23)CC1 [Example 1061] | 0.1 nM | 167.5 to 170.5 °C | 1.2 nM | 97.5% |
| – | COc1cc(N(C)C)cc(C)c1OCCCN1CCN(c2cccc3sccc23)CC1.Cl [Example 15, 4-[3-(4-benzo[b]thiophen-4-yl-piperazin-1-yl)propoxy]-N,N-dimethyl-3-methoxy-5-methylaniline hydrochloride] | 0.4 nM | 234.5 to 240.5 °C (dec.) | 5.9 nM | 95.3% |
| – | CN(C)c1cc(OCCCCN2CCN(c3cccc4sccc34)CC2)n(C)n1 [Example 1138] | 1.4 nM | – | 19.7 nM | 67.2% |
| – | COc1cc(N2CCN(C(C)=O)CC2=O)cc(C)c1OCCCN1CCN(c2cccc3sccc23)CC1 [Example 1079] | 0.4 nM | – | 2.8 nM | 82.3% |
| – | CNc1cc(C)c(OCCCN2CCN(c3cccc4sccc34)CC2)c(OC)c1.Cl [Example 11, N-methyl-4-[3-(4-benzo[b]thiophen-4-yl-piperazin-1-yl)propoxy]-3-methoxy-5-methylaniline hydrochloride] | 0.2 nM | 239.5 to 244 °C (dec.) | 4.4 nM | 95.2% |
| – | COc1cc(N2CCCCC2)cc(C)c1OCCCN1CCN(c2cccc3sccc23)CC1 [Example 1089] | 1 nM | – | 13.9 nM | 85.0% |
| – | CN(C)C(=O)N1CCC(OCCCN2CCN(c3cccc4sccc34)CC2)CC1 [Example 1110] | 1.2 nM | – | 4.9 nM | 38.5% |
| – | COc1cc(N2CCN(C(C)=O)CC2)cc(C)c1OCCCN1CCN(c2cccc3sccc23)CC1 [Example 1083] | 0.3 nM | – | 1.5 nM | 96.3% |
